According to patent US20190365719A1, “COMBINATION TREATMENTS OF HSP90 INHIBITORS FOR ENHANCING TUMOR IMMUNOGENICITY AND METHODS OF USE THEREOF” (Massachusetts Institute of Technology, priority 2018, published 2019):
Where two headings read alike, the source gives them in different places.

What was measured:
MC38 cells [1] = assay: Flow cytometry of MHC Class I H2-Kb surface expression on MC38 cells; format: cell-based, mouse
Method: (§1) For analysis of MHC Class I surface expression, cells were seeded into 12 well plates (125,000/well). 24-hours later, cells were treated with the indicated concentrations of HSP90i (NVP-HSP990) or DMSO vehicle. 72-hours after treatment, cells were dissociated with Accumax (Innovative Cell Technologies) and each treatment condition was distributed into 2 wells of a 96 well plate. […] After incubation with antibody, cells were washed 1× in ice cold PBS+10% FBS prior to analysis on a MACSQuant VYB flow cytometer. Cytometric data were plotted and analyzed with FloJo.
as §1, with “LSR-2” for “MACSQuant VYB”

[2] = cited from earlier work
[3] = cited from earlier work; remark: listed apart in the source
TMK-1 xenografts = conditions: 5 mg/kg or 25 mg/kg thrice per week; cited from earlier work
tumor growth = conditions: 25 mg/kg three times a week; cited from earlier work
TCL1-SCID transplant = conditions: 10 mg/kg for 16 days; cited from earlier work
human HSP90 = conditions: cited from earlier work
[4] = relative to 17-AAG; cited from earlier work
A375 cells = conditions: cited from earlier work
HSP90 [5] = conditions: binding to HSP90, same site; cited from earlier work
[6] = mono-therapy, cited from earlier work
HSP90 [7] = conditions: cited from earlier work
HSP90 [8] = conditions: cited from earlier work; remark: listed apart in the source
[9] = test system: A375 and A2780 xenografts; conditions: 60 mg/kg i.v.; cited from earlier work
[10] = 10 mg/kg i.v., test animals; cited from earlier work
HSP90 [11] = conditions: cited from earlier work; remark: listed apart in the source
[12] = test system: refractory neuroendocrine tumors (NET)s; conditions: 42-100 mg/m2 every other day; cited from earlier work
[13] = test system: M229R and 1205LuR xenografts; conditions: cited from earlier work
MC38 cells [14] = assay: Immunoblot analysis of MC38 cells; format: cell-based, mouse; conditions: Hsp90i 60 nM or IFN-γ 10 ng/mL
Method: Protein extraction was performed by washing cells 2× with PBS. A volume of lysis buffer (50 mM Tris pH 7.5, 150 mM NaCl, 1 mM EDTA, 1% Triton-X100, 0.1% SDS, 1× Halt Protease/Phosphatase inhibitor) equal to 1/10 the culture media volume was added directly to the culture dish and incubated for 2-3 min on ice. Lysates were then thoroughly scraped and pipetted into 1.5 mL tubes and incubated for an additional 30 min on ice. Lysates were then cleared by centrifugation at 14,000×g for 15 min and quantified using BCA Assay. Lysates were separated by SDS-PAGE and transferred to 0.2 μm nitrocellulose membranes prior to washing with PBST, blocking with 5% milk in PBST, and incubation with primary antibody overnight at 4° C. All primary antibodies were diluted 1:1000 in 2.5% milk in PBST. Membranes were then washed 4×5 min with PBST and incubated with HRP conjugated secondary antibody at a 1:10,000 dilution in 2.5% milk in PBST, and washed again 4×5 min with PBST. Detection of secondary antibody was performed with SuperSignal West Pico or Femto ECL reagents (Pierce) and digitally imaged on a ChemiDoc (BioRad).
Immunoblotting was performed as described in Example 4. Briefly, protein extraction was performed by washing cells with PBS and then isolating whole cell lysates in lysis buffer (50 mM Tris pH 7.5, 150 mM NaCl, 1 mM EDTA, 1% Triton-X100, 0.1% SDS, 1× Halt Protease/Phosphatase inhibitor) Lysates were then cleared by centrifugation and quantified using BCA Assay. Lysates were separated by SDS-PAGE and transferred to 0.2 μm nitrocellulose membranes prior to washing with PBST, blocking with 5% milk in PBST, and incubation with primary antibody overnight at 4° C. All primary antibodies were diluted 1:1000 in 2.5% milk in PBST. Membranes were then washed and incubated with HRP conjugated secondary antibody. Detection of secondary antibody was performed with SuperSignal West Pico or Femto ECL reagents (Pierce) and digitally imaged on a ChemiDoc (BioRad).

## COc1ccc(C[C@H](NC(=O)[C@H](C)NC(=O)CN2CCOCC2)C(=O)N[C@@H](Cc2ccccc2)C(=O)C2(C)CO2)cc1 (stereo in doubt) [ONX-0914]
MC38 cells [1]; ONX-0914 500 nM with low level HSP90i
  effect on HSP90i-caused increase in MHC Class I surface expression: abrogated the increase in MHC Class I surface expression

## C=CCNC1=C2C[C@@H](C)C[C@H](OC)[C@H](O)[C@@H](C)/C=C(\C)[C@H](OC(N)=O)[C@@H](OC)/C=C\C=C(/C)C(=O)NC(=CC1=O)C2=O [17-AAG, 17-Allylamino-17-demethoxy-geldanamycin]
[2]
  water solubility (in words): not water-soluble
[3]; IV over 60 minutes on days 1, 4, 8 and 11 of each 21 day cycle
  maximum tolerated dose (MTD): 150 mg/m^2

## CO[C@H]1/C=C\C=C(/C)C(=O)NC2=CC(=O)C(NCCN(C)C)=C(C[C@@H](C)C[C@H](OC)[C@H](O)[C@@H](C)/C=C(\C)[C@@H]1OC(N)=O)C2=O.Cl [17-DMAG, 17-dimethylaminoethylamino-17-demethoxy-geldanamycin]
TMK-1 xenografts
  tumor growth of TMK-1 xenografts: significantly reduces tumor growth
Tumor growth
  tumor growth in mice: significantly suppresses tumor growth
TCL1-SCID transplant
  survival: prolongs the survival
  white blood cell count: significantly decreases the white blood cell count
Human HSP90; cell-free assay
  IC50: 62 nM
Human HSP90
  potency against human HSP90 as compared with 17-AAG: ~2 times
[4]
  plasma half-life, oral bioavailability, metabolism: longer plasma half-life, greater oral bioavailability, and less extensive metabolism

## CC(C)c1cc(C(=O)N2Cc3ccc(CN4CCN(C)CC4)cc3C2)c(O)cc1O [AT13387]
A375 cells
  IC50: 18 nM
HSP90 [5]
  Kd: 0.7 nM
[6]; once weekly
  tolerated dose: ≤ 90 mg/kg
[6]; twice weekly
  tolerated dose: up to 70 mg/kg
[3]; six doses in a four-week schedule (day 1, 2, 8, 9, 15, 16)
  RP2D: 160 mg/m2
[3]; twice weekly for 3 weeks in a 4-week regimen, diarrhea, nausea, vomiting, fatigue, systemic infusion reactions
  R2PD: 260 mg/m2
[3]; twice weekly for 3 weeks in a 4-week regimen, visual disturbances
  MTD: 120 mg/m2

## CCNC(=O)c1noc(-c2cc(C(C)C)c(O)cc2O)c1-c1ccc(CN2CCOCC2)cc1 [AUY922]
[3]; once weekly intravenous infusion
  maximum tolerated dose: 70 mg/m^2

## COc1c(C)cnc(Cn2cnc3c(Cl)nc(N)nc32)c1C [BIIB021]
HSP90 [7]
  EC50: […]
[3]; twice-weekly oral dosing schedule
  MTD: 800 mg
HSP90 [8]
  Ki: […]

## C=CCNc1c(O)cc2c(O)c1C[C@@H](C)C[C@H](OC)[C@H](O)[C@@H](C)/C=C(\C)[C@@H](OC(N)=O)[C@H](OC)/C=C\C=C(/C)C(=O)N2.Cl [IPI-504]
[2]
  aqueous solubility: > 200 mg/mL
[3]; iv, in combination with docetaxel 75 mg/m^2 once every three weeks, phase Ib
  maximum tolerated dose (MTD) and recommended phase II dose (RP2D): 450 mg/m^2
[3]; monotherapy, intravenous infusion over 30 minutes
  MTD from phase 1 trial: 225 mg/m^2
[3]; phase III trial, metastatic and/or unresectable GIST
  on-treatment deaths, considered drug-related: four

## CN1CCC(NC(=O)c2cc(-c3c(O)cc(O)cc3Oc3ccc([N+](=O)[O-])cc3)on2)CC1 [NMS-E973]
[9]
  antitumor efficacy: high antitumor efficacy
[10]
  blood-brain barrier penetration: ability to cross the blood-brain barrier
  pharmacokinetic profile: favorable pharmacokinetic profile

## CC(C)NCCCn1c(Sc2cc3c(cc2I)OCO3)nc2c(N)ncnc21 [PU-H71]
HSP90 [11]
  IC50: […]
[3]; intravenous (iv) infusion
  MTD: 350-400 mg/m2

## CC1(C)CC(=O)c2c(C(F)(F)F)nn(-c3ccc(C(N)=O)c(N[C@H]4CC[C@H](O)CC4)c3)c2C1 [SNX-2112]
MC38 cells [1]; 60 nM for each drug
  MHC-I surface expression on MC38 cells: induced MHC-I

## CC1(C)CC(=O)c2c(C(F)(F)F)nn(-c3ccc(C(N)=O)c(N[C@H]4CC[C@H](OC(=O)CN)CC4)c3)c2C1 [SNX-5422]
[12]
  patients achieving stable disease for >8 cycles: 2 of 3
[3]; oral, pancreatic NETs and nonfunctional gastrointestinal and pulmonary NETs
  MTD: 75 mg/m^2

## CC[C@@H](C)Nc1cc(C(=O)NC2CC3CCC(C2)N3c2ccc(C(=O)C3CC3)cn2)c(C)cc1C(N)=O (stereo partly drawn) [XL888]
[13]; 100 mg/kg, SCID mice
  growth inhibition of established xenografts: 50%
[13]; 15 days of treatment
  increase in intratumoral HSP70 expression compared with controls: 8.6 fold

B1: IFN-γ: cytokine, canonical stimulus of antigen presentation, comparator at 10 ng/mL (protein, UniProt P01580 23-155, looked up)
Interferon gamma: HGTVIESLESLNNYFNSSGIDVEEKSLFLDIWRNWQKDGDMKILQSQIISFYLRLFEVLKDNQAISNNISVIESHLITTFFSNSKAKKDAFMSIAKFEVNNPQVQRQAFNELIRVVHQLLPESSLRKRKRSRC
MC38 cells [14]
  expression of downstream markers of IFN-γ signaling (Stat1, Stat3, pStat3, PD-L1): induced expression of downstream markers of IFN-γ signaling
